Data on 13 compounds can be found in patent US20260022142A1, “MACROCYCLIC IMMUNOMODULATORS” (Bristol-Myers Squibb Company, priority 2022, published 2026).

Bridge positions count the residues as written; N and C are the ends. Square brackets hold non-standard residues; d marks the D form. Peptide text beside a SMILES is read from it. * marks the point of attachment. ξ: configuration not given here. Bip = N[C@@H](Cc1ccc(-c2ccccc2)cc1)C(=O)O; Phe(3-Me) = Cc1cccc(C[C@H](N)C(=O)O)c1; hArg = N=C(N)NCCCC[C@H](N)C(=O)O; Cha = N[C@@H](CC1CCCCC1)C(=O)O; Cit = NC(=O)NCCC[C@H](N)C(=O)O; aThr = C[C@H](O)[C@H](N)C(=O)O; Thr(3ξ) = CC(O)[C@H](N)C(=O)O; Carboxymethyl = O=C(O)C*; Orn = NCCC[C@H](N)C(=O)O; Aun = NCCCCCCCCCCC(=O)O; Dab = NCC[C@H](N)C(=O)O; Dap = NC[C@H](N)C(=O)O; AEEA = NCCOCCOCC(=O)O

In this assay the target is T1, PD-1/PD-L1 interaction (PE-labeled human PD-L1-Ig binding to Jurkat cell line over-expressing human PD-1) (Homo sapiens, UniProt Q15116).
T1 construct: expressed in transfected cells; host or cells: Jurkat
T1 sequence (Q15116 25-288): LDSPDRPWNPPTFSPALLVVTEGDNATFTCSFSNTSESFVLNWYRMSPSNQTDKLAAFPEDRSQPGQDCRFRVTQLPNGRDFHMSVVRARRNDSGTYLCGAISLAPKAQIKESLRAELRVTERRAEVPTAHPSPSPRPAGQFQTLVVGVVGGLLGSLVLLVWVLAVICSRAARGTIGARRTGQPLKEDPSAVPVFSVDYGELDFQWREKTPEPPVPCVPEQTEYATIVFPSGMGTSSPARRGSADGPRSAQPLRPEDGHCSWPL
As to the kind of experiment: Jurkat-PD-1 Cell Binding High-Content Screening Assay (CBA). The note with it: Jurkat cell line over-expressing human PD-1; PE-labeled PD-L1-Ig 20 nM final; read-out: Jurkat hPD1-PDL1 IC50. Type of assay: cell-based. In outline: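 Binding of fluorescent PD-L1-Ig (phycoerythrin on Ig tag, 20 nM final, 1 h) measured by high-content imaging of fixed, Hoechst-counterstained Jurkat-hPD-1 cells. Compound added 2 h at 37° C beforehand, in DMEM with 10% fetal calf serum.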
Consider `Cc1cccc(C[C@@H]2NC(=O)[C@H](CC(=O)O)NC(=O)[C@H](Cc3ccc(OCC(=O)O)cc3)NC(=O)[C@H](CCCCNC(=N)N)NC(=O)CSC[C@@H](C(=O)NCCOCCOCC(=O)N[C@@H](CCN)C(=O)NCCCCCCCCCCC(=O)O)NC(=O)[C@H](CCCN)NC(=O)[C@H](C(C)C)NC(=O)[C@H](CC3CCCCC3)NC(=O)[C@H](CN)NC(=O)[C@@H](CC(C)C)NC(=O)[C@H](CCCN)NC(=O)[C@H](C(C)C)NC(=O)[C@H](Cc3ccc(-c4ccccc4)cc3)NC(=O)[C@H](C(C)C)NC2=O)c1` [Compound 3249] ({CH2CO}-[hArg]Y(Carboxymethyl)D[Phe(3-Me)]V[Bip]V[Orn][dL][Dap][Cha]V[Orn]C[AEEA][Dab][Aun]-OH; thioether N-14), for which the IC50 (commonly the concentration that gives 50% inhibition) was 25.6 nM.

As for `Cc1cccc(C[C@@H]2NC(=O)[C@H](CC(=O)O)NC(=O)[C@H](Cc3ccc(OCC(=O)O)cc3)NC(=O)[C@H](CCCCNC(=N)N)NC(=O)CSC[C@@H](C(=O)NCCOCCOCC(=O)N[C@@H](CCN)C(=O)NCCCCCCCCCCC(=O)O)NC(=O)[C@H](CCCN)NC(=O)[C@H](C(C)C)NC(=O)[C@H](CC3CCCCC3)NC(=O)[C@H](CCN)NC(=O)[C@@H](CC(C)C)NC(=O)[C@H](CCN)NC(=O)[C@H](C(C)C)NC(=O)[C@H](Cc3ccc(-c4ccccc4)cc3)NC(=O)[C@H](C(C)C)NC2=O)c1` [Compound 3251] ({CH2CO}-[hArg]Y(Carboxymethyl)D[Phe(3-Me)]V[Bip]V[Dab][dL][Dab][Cha]V[Orn]C[AEEA][Dab][Aun]-OH; thioether N-14), the concentration for half-maximal inhibition (IC50) stood at 5.7 nM.

Turning to `Cc1cccc(C[C@@H]2NC(=O)[C@H](CC(=O)O)NC(=O)[C@H](Cc3ccc(OCC(=O)O)cc3)NC(=O)[C@H](CCCCNC(=N)N)NC(=O)CSC[C@@H](C(=O)N[C@@H](CCN)C(=O)NCCOCCOCC(=O)NCCCCCCCCCCC(=O)O)NC(=O)[C@H](CCCN)NC(=O)[C@H](C(C)C)NC(=O)[C@H](CC3CCCCC3)NC(=O)[C@H](CCN)NC(=O)[C@@H](CC(C)C)NC(=O)[C@H](CCN)NC(=O)[C@H](C(C)C)NC(=O)[C@H](Cc3ccc(-c4ccccc4)cc3)NC(=O)[C@H](C(C)C)NC2=O)c1` [Compound 3252] ({CH2CO}-[hArg]Y(Carboxymethyl)D[Phe(3-Me)]V[Bip]V[Dab][dL][Dab][Cha]V[Orn]C[Dab][AEEA][Aun]-OH; thioether N-14), the IC50 is 7.4 nM.

`CC(C)C[C@H]1NC(=O)[C@H](CCN)NC(=O)[C@H](C(C)C)NC(=O)[C@H](Cc2ccc(-c3ccccc3)cc2)NC(=O)[C@H](C(C)C)NC(=O)[C@H](Cc2c[nH]c3ccccc23)NC(=O)[C@H](CC(=O)O)NC(=O)[C@H](Cc2ccc(OCC(=O)O)cc2)NC(=O)[C@H](C(C)O)NC(=O)CSC[C@@H](C(=O)N[C@@H](CCN)C(=O)NCCCCCCCCCCC(=O)O)NC(=O)[C@H](CCCNC(N)=O)NC(=O)[C@H](C(C)C)NC(=O)[C@H](CC2CCCCC2)NC(=O)[C@H](CCN)NC1=O` (stereo partly drawn) [Compound 3253] ({CH2CO}-[Thr(3ξ)]Y(Carboxymethyl)DWV[Bip]V[Dab][dL][Dab][Cha]V[Cit]C[Dab][Aun]-OH; thioether N-14): the half-maximal inhibitory concentration (IC50) stood at 8.8 nM.

`Cc1cccc(C[C@@H]2NC(=O)[C@H](CC(=O)O)NC(=O)[C@H](Cc3ccc(OCC(=O)O)cc3)NC(=O)[C@H](C(C)O)NC(=O)CSC[C@@H](C(=O)N[C@H](CC(N)=O)C(=O)NCCOCCOCC(=O)NCCCCCCCCCCC(=O)O)NC(=O)[C@H](CO)NC(=O)[C@H](C(C)C)NC(=O)[C@H](CC3CCCCC3)NC(=O)[C@H](CCN)NC(=O)[C@@H](CC(C)C)NC(=O)[C@H](CCCN)NC(=O)[C@H](C(C)C)NC(=O)[C@H](Cc3ccc(-c4ccccc4)cc3)NC(=O)[C@H](C(C)C)NC2=O)c1` (stereo partly drawn) [Compound 3254] ({CH2CO}-[Thr(3ξ)]Y(Carboxymethyl)D[Phe(3-Me)]V[Bip]V[Orn][dL][Dab][Cha]VSC[dN][AEEA][Aun]-OH; thioether N-14): the IC50 was 10.9 nM.

For `CC(C)C[C@H]1NC(=O)[C@H](CCN)NC(=O)[C@H](C(C)C)NC(=O)[C@H](Cc2ccc(-c3ccccc3)cc2)NC(=O)[C@H](C(C)C)NC(=O)[C@H](Cc2c[nH]c3ccccc23)NC(=O)[C@H](CC(=O)O)NC(=O)[C@H](Cc2ccc(OCC(=O)O)cc2)NC(=O)[C@H](CCCCNC(=N)N)NC(=O)CSC[C@@H](C(=O)N[C@@H](CCN)C(=O)NCCCCCCCCCCC(=O)O)NC(=O)[C@H](CCCCN)NC(=O)[C@H](C(C)C)NC(=O)[C@H](CC2CCCCC2)NC(=O)[C@H](CCN)NC1=O` [Compound 3255] ({CH2CO}-[hArg]Y(Carboxymethyl)DWV[Bip]V[Dab][dL][Dab][Cha]VKC[Dab][Aun]-OH; thioether N-14), the IC50 was 13.2 nM.

With `Cc1cccc(C[C@@H]2NC(=O)[C@H](CC(=O)O)NC(=O)[C@H](Cc3ccc(OCC(=O)O)cc3)NC(=O)[C@H]([C@H](C)O)NC(=O)CSC[C@@H](C(=O)N[C@H](CC(N)=O)C(=O)NCCOCCOCC(=O)NCCCCCCCCCCC(=O)O)NC(=O)[C@H](CCCCN)NC(=O)[C@H](C(C)C)NC(=O)[C@H](CC3CCCCC3)NC(=O)[C@H](CCN)NC(=O)[C@@H](CC(C)C)NC(=O)[C@H](CCN)NC(=O)[C@H](C(C)C)NC(=O)[C@H](Cc3ccc(-c4ccccc4)cc3)NC(=O)[C@H](C(C)C)NC2=O)c1` [Compound 3256] ({CH2CO}-[aThr]Y(Carboxymethyl)D[Phe(3-Me)]V[Bip]V[Dab][dL][Dab][Cha]VKC[dN][AEEA][Aun]-OH; thioether N-14), the 50% inhibitory concentration (IC50) was 4 nM.

On to `Cc1cccc(C[C@@H]2NC(=O)[C@H](CC(=O)O)NC(=O)[C@H](Cc3ccc(OCC(=O)O)cc3)NC(=O)[C@H](C(C)O)NC(=O)CSC[C@@H](C(=O)NCCOCCOCC(=O)NCCCCCCCCCCC(=O)O)NC(=O)[C@H](CCCCN)NC(=O)[C@H](C(C)C)NC(=O)[C@H](CC3CCCCC3)NC(=O)[C@H](CCN)NC(=O)[C@@H](CC(C)C)NC(=O)[C@H](CCN)NC(=O)[C@H](C(C)C)NC(=O)[C@H](Cc3ccc(-c4ccccc4)cc3)NC(=O)[C@H](C(C)C)NC2=O)c1` (stereo partly drawn) [Compound 3257] ({CH2CO}-[Thr(3ξ)]Y(Carboxymethyl)D[Phe(3-Me)]V[Bip]V[Dab][dL][Dab][Cha]VKC[AEEA][Aun]-OH; thioether N-14), for which the 50% inhibitory concentration (IC50) was found to be 5.3 nM.

As to `CC(C)C[C@@H]1NC(=O)[C@H](Cc2c[nH]c3ccccc23)NC(=O)[C@H](CC(=O)O)NC(=O)[C@H](Cc2ccc(OCC(=O)O)cc2)NC(=O)[C@H](CCCCNC(=N)N)NC(=O)CSC[C@@H](C(=O)NCCOCCOCC(=O)N[C@@H](CCN)C(=O)NCCCCCCCCCCC(=O)O)NC(=O)[C@H](CCCCN)NC(=O)[C@H](C(C)C)NC(=O)[C@H](CC2CCCCC2)NC(=O)[C@H](CCN)NC(=O)[C@@H](C)NC(=O)[C@H](CCN)NC(=O)[C@H](C(C)C)NC(=O)[C@H](Cc2ccc(-c3ccccc3)cc2)NC1=O` [Compound 3258] ({CH2CO}-[hArg]Y(Carboxymethyl)DWL[Bip]V[Dab][dA][Dab][Cha]VKC[AEEA][Dab][Aun]-OH; thioether N-14), the IC50 was 37.3 nM.

Consider `Cc1cccc(C[C@@H]2NC(=O)[C@H](CC(=O)O)NC(=O)[C@H](Cc3ccc(OCC(=O)O)cc3)NC(=O)[C@H](CCCCNC(=N)N)NC(=O)CSC[C@@H](C(=O)N[C@@H](CCN)C(=O)NCCCCCCCCCCC(=O)O)NC(=O)[C@H](CCCN)NC(=O)[C@H](C(C)C)NC(=O)[C@H](CC3CCCCC3)NC(=O)[C@H](CCN)NC(=O)[C@@H](CC(C)C)NC(=O)[C@H](CCCN)NC(=O)[C@H](C(C)C)NC(=O)[C@H](Cc3ccc(-c4ccccc4)cc3)NC(=O)[C@H](C(C)C)NC2=O)c1` [Compound 3259] ({CH2CO}-[hArg]Y(Carboxymethyl)D[Phe(3-Me)]V[Bip]V[Orn][dL][Dab][Cha]V[Orn]C[Dab][Aun]-OH; thioether N-14), for which the IC50 amounted to 10.9 nM.

With `Cc1cccc(C[C@@H]2NC(=O)[C@H](CC(=O)O)NC(=O)[C@H](Cc3ccc(OCC(=O)O)cc3)NC(=O)[C@H](CCCCNC(=N)N)NC(=O)CSC[C@@H](C(=O)N[C@@H](CCN)C(=O)NCCCCCCCCCCC(=O)O)NC(=O)[C@H](CCCCN)NC(=O)[C@H](C(C)C)NC(=O)[C@H](CC3CCCCC3)NC(=O)[C@H](CCN)NC(=O)[C@@H](CC(C)C)NC(=O)[C@H](CCCN)NC(=O)[C@H](C(C)C)NC(=O)[C@H](Cc3ccc(-c4ccccc4)cc3)NC(=O)[C@H](C(C)C)NC2=O)c1` [Compound 3260] ({CH2CO}-[hArg]Y(Carboxymethyl)D[Phe(3-Me)]V[Bip]V[Orn][dL][Dab][Cha]VKC[Dab][Aun]-OH; thioether N-14), the IC50 came out at 12.2 nM.

Regarding `CC(C)C[C@H]1NC(=O)[C@H](CCCN)NC(=O)[C@H](C(C)C)NC(=O)[C@H](Cc2ccc(-c3ccccc3)cc2)NC(=O)[C@H](C(C)C)NC(=O)[C@H](Cc2c[nH]c3ccccc23)NC(=O)[C@H](CC(=O)O)NC(=O)[C@H](Cc2ccc(OCC(=O)O)cc2)NC(=O)[C@H](CCCCNC(=N)N)NC(=O)CSC[C@@H](C(=O)NCCOCCOCC(=O)NCCCCCCCCCCC(=O)O)NC(=O)[C@H](CCCN)NC(=O)[C@H](C(C)C)NC(=O)[C@H](CC2CCCCC2)NC(=O)[C@H](CCN)NC1=O` [Compound 3262] ({CH2CO}-[hArg]Y(Carboxymethyl)DWV[Bip]V[Orn][dL][Dab][Cha]V[Orn]C[AEEA][Aun]-OH; thioether N-14), the IC50 was determined as 6.7 nM.

Consider `CC(C)C[C@H]1NC(=O)[C@H](CCCN)NC(=O)[C@H](C(C)C)NC(=O)[C@H](Cc2ccc(-c3ccccc3)cc2)NC(=O)[C@H](C(C)C)NC(=O)[C@H](Cc2c[nH]c3ccccc23)NC(=O)[C@H](CC(=O)O)NC(=O)[C@H](Cc2c[nH]cn2)NC(=O)[C@H](CCCCNC(=N)N)NC(=O)CSC[C@@H](C(=O)N[C@@H](CCN)C(=O)NCCCCCCCCCCC(=O)O)NC(=O)[C@H](CCCN)NC(=O)[C@H](C(C)C)NC(=O)[C@H](CC2CCCCC2)NC(=O)[C@H](CCN)NC1=O` [Compound 3263] ({CH2CO}-[hArg]HDWV[Bip]V[Orn][dL][Dab][Cha]V[Orn]C[Dab][Aun]-OH; thioether N-14), for which the IC50 is 55.3 nM.
